Reference: patent US4178442A, “Novel cinnamoyles piperazines and homopiperazines, the method of preparing them and their application in therapeutics” (Delalande S. A., priority 1977, dated 1979)
Read-outs that look alike come from different tables or passages of the source.

Key:
Format in all cases: in vivo
[1] = test system: anaesthetized dog; assay: Antiangorous activity on anaesthetized dog: consumption of oxygen in the left ventricule and cardiac effort (KATZ's index); details: for inhibition in vivo at 2.5 mg/kg / inhibition in vivo at 2.3 mg/kg: Canis lupus familiaris, iv
How it was run: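 Katz index taken as mean arterial pressure multiplied by ECG (D2) heart rate, and myocardial O2 use as coronary sinus flow via modified Morawitz cannula times coronary arteriovenous O2 difference. Animals: pentobarbital-anaesthetized dogs (30 mg/kg i.v.), test compounds infused slowly intravenously.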

[2] = test system: anaesthetized dog; assay: Activity on the cerebral circulation, anaesthetized dog; details: for change in vivo at 2 mg/kg / change in vivo at 5 mg/kg / change in vivo at 2.5 mg/kg: Canis lupus familiaris, iv; for Increase of the extraction of cerebral oxygen: (A-V)/A
Protocol: The activity on the cerebral circulation was tested on an anaesthetized dog (sodium pentobarbital 30 mg/kg/i.v.). The vertebral artery flow was measured by means of an electromagnetic perivascular or ultrasonic Doppler effect probe. The intracerebral vascular resistance was estimated by the back pressure of the internal carotid artery. […] The increase in the extraction of cerebral oxygen was estimated by the following equation:(A-V)/A in which: A represents the volume of oxygen in the arterial blood (% volume) measured by hemoreflectometry (KIPP and ZONEN's apparatus) and quantity determination of the haemoglobin (DRABKIN's method). V represents the volume of oxygen in the cerebral venous blood (internal maxillary vein). […] It should be noted that the compounds tested were injected intravenously (rapid injection).

[3] = test system: anaesthetized dog; assay: Activity on the peripheral circulation, anaesthetized dog
Protocol: The activity on the peripheral circulation was studied on an anaesthetized dog (sodium pentobarbital 30 mg/kg/i.v.). The femoral artery flow was measured by means of an electromagnetic or ultrasonic perivascular Doppler effect probe.

[4] = dog, 2 mg/kg i.v. rapid injection
[5] = dog, 10 mg/kg i.v. slow perfusion
[6] = Canis lupus familiaris, iv, dog, 5 mg/kg i.v. slow perfusion, read-out: Average arterial pressure
[7] = Canis lupus familiaris, iv, dog, 5 mg/kg i.v. slow perfusion, read-out: Femoral artery flow
[8] = dog, 5 mg/kg i.v. slow perfusion
[9] = dog, 5 mg/kg i.v. rapid injection, read-out: Internal carotid artery back pressure
[10] = dog, 5 mg/kg i.v. rapid injection, read-out: Vertebral artery flow
[11] = dog, 5 mg/kg i.v. rapid injection
[12] = dog, 2,5 mg/kg i.v. rapid injection
[13] = dog, 2,5 mg/kg i.v. slow perfusion

`COc1ccccc1OCC(O)CN1CCN(C(=O)/C=C/c2cc(OC)c(OC)c(OC)c2)CC1` (centres unmarked) [760 392] was tested, and the “Diminution in consumption of O2: in time” value ([1]; 2.5 mg/kg i.v. slow perfusion) was 30 min, the “Diminution in the cardiac effort (IK): in time” value ([1]; 2.5 mg/kg i.v. slow perfusion) was 30 min and the inhibition in vivo at 2.5 mg/kg ([1]; 2.5 mg/kg i.v. slow perfusion, read-out: Diminution in consumption of O2) was 31%. For the same compound, the inhibition in vivo at 2.5 mg/kg ([1]; 2.5 mg/kg i.v. slow perfusion, read-out: Diminution in the cardiac effort (IK)) was 11%, the change in vivo at 2 mg/kg ([2]; dog, 2 mg/kg i.v. rapid injection, read-out: Internal carotid artery back pressure) was -79% and the change in vivo at 2 mg/kg ([2]; dog, 2 mg/kg i.v. rapid injection, read-out: Systemic average arterial pressure) was -39%. The change in vivo at 2 mg/kg ([2]; dog, 2 mg/kg i.v. rapid injection, read-out: Vertebral artery flow) was 186%, the “Internal carotid artery back pressure: in time” value [2, 4] was over 30 min and the Systemic average arterial pressure: in time [2, 4] was 30 min. For the same compound, the “Vertebral artery flow: in time” value [2, 4] was under 30 min, the change in vivo at 10 mg/kg ([3]; Canis lupus familiaris, iv, dog, 10 mg/kg i.v. slow perfusion, read-out: Average arterial pressure) was -28% and the change in vivo at 10 mg/kg ([3]; Canis lupus familiaris, iv, dog, 10 mg/kg i.v. slow perfusion, read-out: Femoral artery flow) was 56%. For the same compound, the “Average arterial pressure: in time” value [3, 5] was 38 min and the “Femoral artery flow: in time” value [3, 5] was 45 min.

`COc1cc(/C=C/C(=O)N2CCN(CC(O)COc3ccc(C#N)cc3)CC2)cc(OC)c1OC` (centres unmarked) [760 501] was tested, and the “Diminution in consumption of O2: in time” value ([1]; 2.3 mg/kg i.v. slow perfusion) was 45 min, the “Diminution in the cardiac effort (IK): in time” value ([1]; 2.3 mg/kg i.v. slow perfusion) was 15 min and the inhibition in vivo at 2.3 mg/kg ([1]; 2.3 mg/kg i.v. slow perfusion, read-out: Diminution in consumption of O2) was 75%. The inhibition in vivo at 2.3 mg/kg ([1]; 2.3 mg/kg i.v. slow perfusion, read-out: Diminution in the cardiac effort (IK)) was 4%, the change in vivo at 5 mg/kg [3, 6] was -22% and the change in vivo at 5 mg/kg [3, 7] was 61%. The “Average arterial pressure: in time” value [3, 8] was 35 min and the “Femoral artery flow: in time” value [3, 8] was 23 min.

In the case of `COc1cc(/C=C/C(=O)N2CCN(CC(O)COc3cccc(Cl)c3)CC2)cc(OC)c1OC` (centres unmarked) [760 504], the change in vivo at 5 mg/kg [3, 6] is reported as -23%, the change in vivo at 5 mg/kg [3, 7] is reported as 49% and the “Average arterial pressure: in time” value [3, 8] is reported as 10 min. For the same compound, the “Femoral artery flow: in time” value [3, 8] was 15 min.

For `COc1cc(/C=C/C(=O)N2CCN(CC(O)COc3ccc(C)cc3)CC2)cc(OC)c1OC` (centres unmarked) [760 505], the change in vivo at 5 mg/kg [2, 9] was -38%, the change in vivo at 5 mg/kg ([2]; dog, 5 mg/kg i.v. rapid injection, read-out: Systemic average arterial pressure) was -11% and the change in vivo at 5 mg/kg [2, 10] was 113%. The “Internal carotid artery back pressure: in time” value [2, 11] was 10 min, the Systemic average arterial pressure: in time [2, 11] was 20 min and the “Vertebral artery flow: in time” value [2, 11] was 10 min. For the same compound, the change in vivo at 5 mg/kg [3, 6] was -21%, the change in vivo at 5 mg/kg [3, 7] was 24% and the “Average arterial pressure: in time” value [3, 8] was 23 min. The “Femoral artery flow: in time” value [3, 8] was 15 min.

`COc1cc(/C=C/C(=O)N2CCN(CC(O)COc3cccc(C)c3)CC2)cc(OC)c1OC` (centres unmarked) [760 521] was tested, and the change in vivo at 5 mg/kg [3, 6] was -19%, the change in vivo at 5 mg/kg [3, 7] was 34% and the “Average arterial pressure: in time” value [3, 8] was 30 min. For the same compound, the “Femoral artery flow: in time” value [3, 8] was 15 min.

For `C(=C\c1ccccc1)/CN1CCN(C(c2ccccc2)c2ccccc2)CC1` [Cinnarizine, cinnarizine, reference compound], the change in vivo at 5 mg/kg [2, 9] was -25%, the change in vivo at 5 mg/kg [2, 10] was 130% and the “Internal carotid artery back pressure: in time” value [2, 11] was 30 min. The “Vertebral artery flow: in time” value [2, 11] was 30 min, the “Increase of the extraction of cerebral oxygen” value (from here on “Increase”) [2, 11] was 0% and the change in vivo at 5 mg/kg [3, 7] was 100%. The “Femoral artery flow: in time” value [3, 8] was 30 min.

For `CCN(CC)CCOC(=O)C(Cc1cccc2ccccc12)CC1CCCO1` (centres unmarked) [Naphtidrofuryl, naphtidrofuryl, reference compound], the change in vivo at 2.5 mg/kg ([2]; dog, 2,5 mg/kg i.v. rapid injection, read-out: Internal carotid artery back pressure) was -26%, the change in vivo at 2.5 mg/kg ([2]; dog, 2,5 mg/kg i.v. rapid injection, read-out: Systemic average arterial pressure) was -50% and the change in vivo at 2.5 mg/kg ([2]; dog, 2,5 mg/kg i.v. rapid injection, read-out: Vertebral artery flow) was 100%. For the same compound, the “Internal carotid artery back pressure: in time” value [2, 12] was 5 min, the Systemic average arterial pressure: in time [2, 12] was 2 min and the “Vertebral artery flow: in time” value [2, 12] was 5 min. The “Increase” value [2, 12] was -50%, the change in vivo at 2.5 mg/kg ([3]; Canis lupus familiaris, iv, dog, 2,5 mg/kg i.v. slow perfusion, read-out: Average arterial pressure) was -50% and the change in vivo at 2.5 mg/kg ([3]; Canis lupus familiaris, iv, dog, 2,5 mg/kg i.v. slow perfusion, read-out: Femoral artery flow) was 100%. The “Average arterial pressure: in time” value [3, 13] was 2 min and the “Femoral artery flow: in time” value [3, 13] was 5 min.

For `COc1ccc(Cc2nccc3cc(OC)c(OC)cc23)cc1OC` [Papaverine, papaverine, reference compound], the change in vivo at 2.5 mg/kg ([2]; read-out: Internal carotid artery back pressure) was -45%, the change in vivo at 2.5 mg/kg ([2]; read-out: Vertebral artery flow) was 100% and the “Internal carotid artery back pressure: in time” value [2, 12] was 5 min. The “Vertebral artery flow: in time” value [2, 12] was 6 min, the “Increase” value [2, 12] was 0% and the change in vivo at 2 mg/kg ([3]; Canis lupus familiaris, iv, read-out: Femoral artery flow) was 100%. The “Femoral artery flow: in time” value ([3]; dog, 2 mg/kg i.v. slow perfusion) was 1 min.
